Laboratory results: patent US20090170801A1 (Beijing Century Biocom Pharmaceutical Technology Co. Ltd., priority 2006, published 2009)

Assays:
[1] = test system: decapitated mice; experiment: Breathing time, breathing frequency, brain index and brain water content in decapitated mice; assay type: in vivo, ICR mice; conditions: 2 mg/kg tail i.v.
Method: The model group was administrated normal salt. At 15 minutes after administration, the mice were decapitated by a pair of scissors. The mouth breathing time, breathing frequency and brain water content were recorded and compared with other groups. Whole brains were collected. After the wet weight was obtained, they were dried in an oven at 100° C. for 24 hours. The average value was taken to calculate brain water content: brain water content (%)=[…]. Brain index: brain index=brain wet weight (g)/body weight (g)×100%.

[2] = test system: brain of ischemic mice; experiment: Cerebral ischemia in mice with common carotid artery ligation and reperfusion (brain LDH and SOD); assay type: in vivo; conditions: 2 mg/kg tail i.v.
Method: Grouped mice were respectively administered test substance, nimodipine or normal salt by tail intravenous injection. After 15 minutes, the mice were anesthetized with 3.5% chloral hydrate, fixed in the back. The right and left common carotid artery and vagus nerve were exposed, and 4-0 suture was inserted under the bilateral carotid artery. The suture was tightened to block blood flow for 5 minutes. Then the line was loosened to restore blood flow for 10 minutes. The operation was repeated three times, and an ischemia-reperfusion model in mice was established. After the last reperfusion, the mice were decapitated and brain collected. In the control group, only the bilateral carotid arteries were exposed, without a suture being inserted.

COCCOC(=O)C1=C(C)NC(C)=C(C(=O)OC(C)C)C1c1cccc([N+](=O)[O-])c1 (stereo not drawn) [Nimodipine, nimodipine]
Brain water content [1]: 75.8 ± 1.0 %
LDH [2]: 11.3 ± 6.6 U/mg
SOD [2]: 144.77 ± 21.61 U/mg
